“Also recorded” adds a separate entry of the source.
How the values were obtained:
[1] = tested on: AAV-A53T α-synuclein rat model; assay: Size of α-synuclein-positive aggregates in the striatum; assay type: in vivo; details: for maximum aggregate size measured: striatum
From the text: Fixed tissue blocks were immersed in 30% sucrose for cryoprotection and sectioned frozen on a sliding microtome (30 μm section thickness for striatal sections; 40 μm section thickness for SN sections). Sections through the rostro-caudal extent of the SN were collected and every sixth section from the SN was processed for tyrosine hydroxylase (TH) immunohistochemistry to be used for stereological cell counting. Three striatal sections from approximately the level of the decussation of the anterior commissure in each case were processed for α-synuclein immunohistochemistry. For immunohistochemistry, sections were washed and permeabilized with PBS containing 0.2% Triton X-100. Endogenous peroxidase activity was quenched using 3% hydrogen peroxide in PBS containing 0.2% Triton X-100. Sections were then blocked in PBS/triton X-100 containing 10% normal goat serum and 2% BSA, followed by primary antibody incubation (TH (rabbit anti-TH, 1:2,000, Pel-Freez); α-synuclein (mouse anti-α-synuclein clone 211; 1:2000, Millipore) overnight at 4° C. The following day, sections were washed in PBS and incubated in biotinylated secondary antibody (goat-anti-rabbit 1:4000 for TH; goat-anti-mouse 1:2000 for α-synuclein 1:2000, VECTOR Laboratories), followed by additional washes and incubation in avidin biotin complex (VECTASTAIN Elite ABC system, VECTOR Laboratories). The reaction product was visualized with 3,3′-diaminobenzidine (DAB) (Immpact DAB, VECTOR Laboratories). Sections were then mounted, dehydrated, cleared and coverslipped. Sections stained for visualization of TH and to be used for stereological cell counting were counterstained with cresyl violet prior to coverslipping. […] Slides were coded and analyzed blindly. […] Cells were then counted at high power (100×) using a counting frame measuring 60 μm^2. […] This process was repeated for each section in the series for a given animal, and a total of 7-8 sections/animal were analyzed. Nissl-stained cells were counted concurrently in the same sections using the same sampling parameters. […]
Immunoblotting for α-synuclein expression was performed using the Wes western blot system (ProteinSimple). […] The sizes of α-synuclein-positive swelling/aggregates were measured in 3 fields (one medial, one central and one lateral) from 1 coronal section (at the approximate level of the decussation of the anterior commissure). Photographs were captured using a 40× objective on a Nikon Eclipse Ni microscope and α-synuclein-positive structures with an area >5 μm2 were considered as aggregates and were measured using Nikon MS Elements AR software. Data are presented as the distribution of aggregate sizes in the three striatal regions measured.

[2] = tested on: AAV-A53T α-synuclein rat model; assay: Immunohistochemistry of Ser129-phosphorylated α-synuclein in the SN; assay type: in vivo; details: delayed start GM1; 8 weeks after AAV-A53T; not quantified
[3] = tested on: differentiated SH-SY5Y cells; assay: Uptake of GFP-α-Syn from conditioned medium; assay type: cell-based; details: 100 μM GM1, 24 hrs, conditioned medium of MN9D cells expressing GFP-tagged human WT α-Syn
Description: It has recently become appreciated that cell-to-cell transfer of α-Syn may be an important factor in the progression of synucelinopathies. Cell-to-cell transfer of α-Syn can occur as free α-Syn or as α-Sy-containing exosomes. Herein, a preliminary study was conducted to assess the extent to which GM1 can influence α-Syn release and/or uptake by neighboring cells. MIN9D dopaminergic cells stably expressing human WT α-Syn tagged with GFP were cultured to ˜90% confluency and shifted to serum free media for 48 hours to generate conditioned medium (CM), which was collected, spun at 1000 rpm for 10 minutes and filtered through a sterile […] filter. Normal SH-SY5Y cells (ATCC) were plated in 8 well chamber slides and differentiated in 10 μM retinoic acid for 7 days. Sterile CM or regular medium were used to replace 50% of the medium in each well. The cells were grown in the CM for 24 hours in presence or absence of 100 μM GM1, fixed in 4% paraformaldehyde for 10 minutes, and processed for enhanced visualization of GFP using GFP immunofluorescence.

[4] = tested on: AAV-A53T α-synuclein rat model; assay: Insoluble pSer129 α-Syn immunofluorescence in SN after proteinase K; assay type: in vivo; details: GM1 30 mg/kg/day i.p. for 2 wks, starting 24 hrs after AAV-A53T
From the text: However, GM1 administration may affect α-Syn phosphorylation and aggregation in vivo. Some studies have reported that in vitro, GM1 and α-Syn interact, resulting in an absence of fibril formation and an increase in helical folding propensity, resulting in GM1-mediated protection against aggregation. […] It was proposed herein that a mechanism that underlies the ability of GM1 to reduce α-Syn-related neurotoxicity is that GM1 administration reduces α-Syn phosphorylation and thus aggregation, and toxicity, in vivo. […] Beginning 24 hours after AAV administration, some animals received daily i.p. injections of saline and others received daily i.p. injections of GM1 (30 mg/kg). Animals were euthanized 2 weeks following initiation of saline or GM1 administration. Brains were subsequently sectioned and SN sections were treated with proteinase K and then processed for pSer129 α-Syn immunofluorescence.

[5] = delayed start GM1 (3 weeks after AAV-A53T)
[6] = early start GM1 (24 hours after AAV-A53T)

## GM1 ganglioside
[1]; [5]
  size distribution of striatal α-synuclein-positive aggregates, GM1 vs saline: greater numbers of larger sized aggregates in the saline-treated group compared to the GM1 group
  maximum aggregate size measured: 29.3 μm^2
[1]; [6]
  size distribution of striatal α-synuclein-positive aggregates, GM1 vs saline: larger numbers of smaller sized aggregates and fewer larger sized aggregates
  maximum aggregate size measured: 28.8 μm^2
[2]
  Ser129-phosphorylated α-synuclein staining in the SN, GM1 vs saline: less intense cytoplasmic Ser129-phosphorylated α-synuclein staining and fewer/smaller nuclear aggregates; also recorded: more Ser129 phosphorylated α-synuclein staining in saline-treated animals compared to GM1-treated animals
[3]
  uptake of GFP-α-Syn into SH-SY5Y cells: reduced levels of GFP-α-Syn; also recorded: reduced uptake of GFP-α-Syn
[4]
  insoluble pSer129 α-Syn-positive cells and pSer129 α-Syn per cell in the SN, GM1 vs saline: significantly fewer pSer129 α-Syn-positive cells and less pSer129 α-Syn per cell; also recorded: fewer SN neurons expressing insoluble pSer129 and decreased pSer129 expression per neuron

From patent US20220226357A1, “METHODS FOR TREATING NEURODEGENERATIVE DISORDERS” (THOMAS JEFFERSON UNIVERSITY, priority 2019, published 2022)
